From patent US7855200B2, “Method for treatment of gastric ulcers and ulcers induced by aspirin” (Council of Scientific and Industrial Research, priority 2006, dated 2010)

What was measured:
Assay type in all cases: in vivo, albino rats
[1] = test system: acetyl salicylic acid induced gastric lesions; experiment: Acetyl salicylic acid (aspirin) induced gastric ulcer; set-up: Ulcer index Mean(SE): scale not given here; conditions: rats, 25 mg/kg per orally daily for five days, aspirin 200 mg/kg; for inhibition at 25 mg/kg: Rattus norvegicus, po, 120 h
Experimental: Stress induced gastric ulceration The commercially available drug ranitidine (sigma), Omeprazole (sigma) and sucralfate (Merck) were used as reference standard in experimental models. The Tween-80 (SD fine chemicals) was used as vehicle for the administration of the drug, which is used as control. Antiulcer activity of the compounds under taken was studied. The animals were divided into 20 groups of 6 animals each. Group 1 received the vehicle Tween 80 (1%, 1 ml) which served as the control. Group 2 received ranitidine at a dose of 50-mg/kg body weight, which served as standard for comparison. Group 3 to 20 at a dose of 25 mg/kg body weight. Rats were administered per orally with a daily dose of the compounds and the drug ranitidine for a period of five days and then fasted for 24 hours. The […] acetyl salicylic acid (aspirin) at a dose of 200 mg/kg body weight was administered as a suspension in tween-80 (1%), 30 min after the drug administration each day. All drugs were administered orally on the 6th day after the last administration of the drugs and the ulcer inducing agent aspirin, the rats were killed by cervical dislocation and their stomach were opened along the greater curvature and washed with luke warm saline and examined under a dissecting microscope. The ulcer index was calculated for each stomach. […] The antiulcer activity of the compounds was studied. The animals were divided into 19 groups of 6 animals each. Group 1 received the vehicle Tween 80 (1%, 1 ml) which served as the control. Group 2 received ranitidine at a dose of 50-mg/kg-body weight, which served as standard for comparison. […] Rats were administered per orally with a daily dose of the compounds and the drug ranitidine to respective groups for a period of five days and then fasted for 24 hours. The […] acetyl salicylic acid (aspirin) at a dose of 200 mg/kg body weight was administered as a suspension in tween-80 (1%), 30 min after the drug administration each day. All drugs were administered orally on ht […] day after the last administration of the drugs and the ulcer inducing agent aspirin, the rats were killed by cervical dislocation and their stomach were opened along the greater curvature and washed with luke warm saline and examined under a dissecting microscope.

[2] = test system: ethanol induced gastric ulcers; experiment: Ethanol induced ulcers; conditions: rats, 25 mg/kg, ethanol challenge; for inhibition at 25 mg/kg: Rattus norvegicus; for Acidity Total mEg / Gastric content / pH: 4 hours after pylorus ligation
Experimental: Stress induced gastric ulceration The commercially available drug ranitidine (sigma), Omeprazole (sigma) and sucralfate (Merck) were used as reference standard in experimental models. The Tween-80 (SD fine chemicals) was used as vehicle for the administration of the drug, which is used as control. The animals were divided into 22 groups of 6 animals each. Animals were deprived of food for 48 hours but had free access to water. Group 1 received the vehicle Tween 80 (1%, 1 ml) which served as the control. Group 2 received ranitidine at a dose of 50-mg/kg-body weight, which served as standard for comparison. Group 3 to received Omeprazole at a dose of 30-mg/kg body weight, which served as standard for comparison. Group 4 received sucralfate at a dose of 400-mg/kg body weight, which served as standard for comparison. Group 5 to 22 received at a dose of 25 mg/kg body weight. Lesions were induced 1 hour after ethanol challenge animals. The stomach was ligated at the pylorus under ether anesthesia. 4 hours after pylorus ligation, the animals were sacrificed and the contents drained and centrifuges at 5000 rpm for 10 minutes. Aliquots of supernatant were used for determination of total acid by titrating with 0.01N NaOH using topfers reagent and phenolphthalein indicators. […] The animals were divided into 9 groups of 6 animals each. Animals were deprived of food for 48 hours but had free access to water. Group 1 received the vehicle Tween 80 (1%, 1 ml) which served as the control. Group 2 received ranitidine at a dose of 50-mg/kg-body weight, which served as standard for comparison. Group 3 to received Omeprazole at a dose of 30-mg/kg body weight, which served as standard for comparison. Group 4 received sucralfate at a dose of 400-mg/kg body weight, which served as standard for comparison. […] Lesions were induced 1 hour after ethanol challenge animals. The stomach was ligated at the pylorus under ether anesthesia. 4 hours after pylorus ligation, the animals were sacrificed and the contents drained and centrifuges at 5000 rpm for 10 minutes. Aliquots of supernatant were used for determination of total acid by titrating with 0.01N NaOH using topfers reagent and phenolphthalein indicators.

[3] = test system: gastric ulceration in cold restraint rats; experiment: Cold restraint (stress) induced ulcers; set-up: Ulcer index Mean(SE): scale not given here; conditions: rats, 25 mg/kg per orally, 4° C. for 2 hours; for inhibition at 25 mg/kg: Rattus norvegicus, po
Excerpt: (§1) The compounds taken under study for antigastric ulcer screening by four different models were selected using experimental albino rats: • 1. Aspirin induced gastric ulceration • 2. Pylorus ligated gastric ulceration • 3. Ethanol induced gastric ulceration • 4. Stress induced gastric ulceration
(§2) The commercially available drug ranitidine (sigma), Omeprazole (sigma) and sucralfate (Merck) were used as reference standard in experimental models. The Tween-80 (SD fine chemicals) was used as vehicle for the administration of the drug, which is used as control.
(§3) The antiulcer activity of the compounds was studied. The animals were divided into 21 groups of 7 animals each. Group 1 received the vehicle Tween 80 (1%, 1 ml) which served as the control. Group 2 received ranitidine at a dose of 50-mg/kg body weight, which served as standard for comparison. Group 3 to 21 at a dose of 25 mg/kg body weight. Animals were deprived of food 48 hours before the experiment. The water was allowed for free access. Rats were administered per orally with compounds and the drug ranitidine. The water was removed 1 hour before restraint and exposed to a temperature of 4° C. for 2 hours. Two hours after stress, the animals were sacrificed. The stressed animals were opened along the greater curvature and the severity of gastric ulcer was assessed in terms of mean ulcer index. 2.
as §3, with “8” for “21”, “6” for “7”, “50, 25, 15, 10 and 5” for “25”, “weight respectively.” for “weight.”, “index.” for “index. 2.”

Pylorus ligated rats = experiment: Pylorus ligated ulcers; conditions: 25 mg/kg, 4 hours after pylorus ligation; for inhibition at 25 mg/kg: Rattus norvegicus
Excerpt: as §1, §2
The animals were divided into 19 groups of 6 animals each. Animals were deprived of food for 48 hours but had free access to water. Group 1 received the vehicle Tween 80 (1%, 1 ml) which served as the control. Group 2 received ranitidine at a dose of 50-mg/kg-body weight, which served as standard for comparison. […] After one hour of administration of drug the stomach was ligated at the pylorus under ether anesthesia. 4 hours after pylorus ligation, the animals were sacrificed and the contents drained and centrifuges at 5000 rpm for 10 minutes. Aliquots of supernatant were used for determination of total acid by titrating with 0.01N NaOH using topfers reagent and phenolphthalein indicators. 4.
The animals were divided into 7 groups of 6 animals each. Animals were deprived of food for 48 hours but had free access to water. Group 1 received the vehicle Tween 80 (1%, 1 ml) which served as the control. Group 2 received ranitidine at a dose of 50-mg/kg-body weight, which served as standard for comparison. Group 3 to 7 received at a dose of 50, 25, 15, 10 and 5 mg/kg body weight respectively. After one hour of administration of drug the stomach was ligated at the pylorus under ether anesthesia. 4 hours after pylorus ligation, the animals were sacrificed and the contents drained and centrifuges at 5000 rpm for 10 minutes. Aliquots of supernatant were used for determination of total acid by titrating with 0.01N NaOH using topfers reagent and phenolphthalein indicators.

Row | SMILES | inhibition at 25 mg/kg [1] [%] | Ulcer index Mean(SE) [1] | inhibition at 25 mg/kg [2] [%] | Ulcer index Mean(SE) [2] | Acidity Total mEg [2] | Gastric content [2] | pH [2] | inhibition at 25 mg/kg [3] [%] | Ulcer index Mean(SE) [3] | Acidity Total mEg (Pylorus ligated rats) | Gastric content (Pylorus ligated rats) | Ulcer index Mean(SE) (Pylorus ligated rats) | pH (Pylorus ligated rats) | inhibition at 25 mg/kg (Pylorus ligated rats) [%] | Inhibition % [1] [%] | Inhibition % [2] [%] | Inhibition % [3] [%] | Inhibition % (Pylorus ligated rats) [%]
1 | CN(C)CCCOc1cc(O)c2c(=O)cc(-c3ccccc3)oc2c1 [CHN-2, 7-(3-Dimethylamino-propoxy)-5-hydroxy-2-phenyl chromen-4-one] | 55.7 | 20.00 | 42.5 | 38.33 (±3.07) | 28.10 (±0.48) mEg | 3.2 (±0.42) | 5.14 (±0.36) | 56.1 | 17.85 | 37.18 (±4.20) m Eg | 1.80 (±0.46) | 20.83 (±2.00) | 4.25 (±0.09) | 58.4 |  |  |  | 
2 | O=c1cc(-c2ccccc2)oc2cc(OCCCN3CCCCC3)cc(O)c12 [CPP-2, 5-Hydroxy-2-phenyl-7-(3-piperidin-1-yl-propoxy)-chromen-4-one] | 66.8 | 14.99 | 36.2 | 28.83 (±2.71) | 44.60 (±4.12) mEg | 3.2 (±0.62) | 3.33 (±0.16) | 61.4 | 15.71 | 29.06 (±2.20) m Eg | 2.60 (±0.24) | 15.80 (±2.71) | 3.25 (±0.11) | 68.5 |  |  |  | 
3 | O=c1cc(-c2ccccc2)oc2cc(O)cc(O)c12 [Chrysin, 5,7-dihydroxy-2-phenyl-chromen-4-one] | 46.7 | 24.06 | 9.01 | 60.66 (±2.88) | 48.00 (±2.20) mEg | 4.20 (±0.02) | 3.20 (±0.40) | 42.7 | 23.03 | 56.00 (±0.82) m Eg | 1.85 (±0.82) | 37.21 (±0.26) | 4.00 (±0.40) | 25.7 |  |  |  | 
4 | COc1cc(O)c2c(=O)cc(-c3ccccc3)oc2c1 [Methoxy chrysin, 5-hydroxy-7-methoxy-2-phenyl-chromen-4-one] | 11.3 | 40.00 | 15 | 46.66 (±1.66) | 49.20 (±4.12) mEg | 3.9 (±0.40) | 2.91 (±0.15) | 8.77 | 27.14 | 47.20 (±2.40) m Eg | 2.20 (±0.44) | 48.80 (±3.07) | 3.20 (±0.25) | 2.62 |  |  |  | 
5 | CN1CCN(CCCOc2cc(O)c3c(=O)cc(-c4ccccc4)oc3c2)CC1 [NMC-2, 5-Hydroxy-7-[3-(4-methyl-piperzin-1-yl]-propoxy)-2-phenyl hromen-4-one] |  | 23.33 |  | 28.33 (±3.33) | 30.26 (±0.42) mEg | 4.8 (±0.06) | 4.75 (±0.28) |  | 16.42 | 36.26 (±2.80) m Eg | 1.90 (±0.62) | 28.33 (±0.10) | 4.25 (±0.14) |  | 48.30 | 57.50 | 59.67 | 43.47
6 | CN1CCN(CCCCOc2cc(O)c3c(=O)cc(-c4ccccc4)oc3c2)CC1 [NMC-3, 5-Hydroxy-7-[4-(4-methyl-piperzin-1-yl]-butoxy)-2-phenyl chromen-4-one] |  | 30.00 |  | 42.50 (±3.09) | 33.48 (±2.28) mEg | 4.5 (±1.12) | 4.50 (±0.18) |  | 17.13 | 43.48 (±2.50) m Eg | 1.92 (±0.20) | 33.33 (±2.47) | 3.54 (±0.15) |  | 33.52 | 36.25 | 57.92 | 33.49
